Values quoted from earlier work as cited in US20180256601A1, “URSODEOXYCHOLIC ACID AND BRAIN DISORDERS” (priority 2015, published 2018).
Entries after “also recorded” stand apart in the source; their conditions may differ.

Assays:
[1] = tested on: cell model of ALS; details: cell model of ALS (Vaz et al, 2015)
[2] = tested on: prion disease; details: Cortez et al, 2015
[3] = tested on: ALS patients; details: 1 g twice daily; 17 ALS patients
[4] = tested on: cellular model of HD; details: coincubation with 3-NP
[5] = in divided doses (Parry et al, 2010)
[6] = in vivo
[7] = tested on: PBC patients; details: sixty PBC patients
[8] = post approval use
[9] = oral; 450 mg UDCA, or complex containing 426 mg UDCA
[10] = worldwide postmarketing and clinical experience
[11] = not given; remark: listed apart in the source

C[C@H](CCC(=O)NCC(=O)O)[C@H]1CC[C@H]2[C@@H]3[C@@H](O)C[C@@H]4C[C@H](O)CC[C@]4(C)[C@H]3CC[C@]12C [GUDCA, glycoursodeoxycholic acid]
mitochondrial dysfunction, caspase-9 activation, matrix metalloproteinase activation, nitrogen oxide (NO) generation [1]: decrease

C[C@H](CCC(=O)NCCS(=O)(=O)O)[C@H]1CC[C@H]2[C@@H]3[C@@H](O)C[C@@H]4C[C@H](O)CC[C@]4(C)[C@H]3CC[C@]12C [TUDCA, tauroursodeoxycholic acid]
therapeutic effects in prion disease [2]: variety of therapeutic effects | Amyotrophic Lateral Sclerosis Functional Rating Scale Revised [3]: significant improvements | mitochondrial cytochrome c release and mitochondrial membrane alterations [4]: prevented | reduction in apoptosis [4]: ~80%

C[C@H](CCC(=O)O)[C@H]1CC[C@H]2[C@@H]3[C@@H](O)C[C@@H]4C[C@H](O)CC[C@]4(C)[C@H]3CC[C@]12C [UDCA, Ursodeoxycholic Acid]
dose well tolerated without significant neurotoxic effects [5]: up to 50 mg/kg/day | percentage of UDCA in the bile pool after administration of exogenous UDCA [6]: 55 to 60% | abdominal pain and asthenia [7]: 1 patient | anorexia [7]: 1 patient | dyspepsia [7]: 2 patients | esophagitis [7]: 1 patient | nausea [7]: 3 patients | patients who reported adverse reactions ([7]; seven patients, nine adverse reactions): 11.6% | Adverse Reactions: Musculoskeletal and connective tissue disorders [8]: Myalgia | Adverse Reactions: Nervous system disorders [8]: dizziness, headache | Adverse Reactions: Respiratory, thoracic and mediastinal disorders [8]: Cough | Adverse Reactions: Gastrointestinal disorders ([8]; listed as ursodiol): abdominal discomfort,; also recorded: abdominal pain,; also recorded: constipation, diarrhea,; also recorded: dyspepsia, nausea,; also recorded: vomiting | Adverse Reactions: General disorders and administration site conditions ([8]; listed as ursodiol): malaise, peripheral; also recorded: edema, pyrexia | Adverse Reactions: Immune System Disorders ([8]; listed as ursodiol): Drug hypersensitivity; also recorded: edema, urticaria,; also recorded: laryngeal edema | Adverse Reactions: Skin and subcutaneous tissue disorder ([8]; listed as ursodiol): alopecia, pruritus, and rash | Cmax [9]: 6100 ng/mL | t1/2(abs) [9]: 0.9 h | tmax [9]: 1.38 h | correlation between serum concentrations 1 hour after dosing and cerebrospinal fluid concentrations 2 hours after dosing (18 ALS patients (Parry et al, 2010)): strong statistically significant correlation | time of serum level peak (after oral administration): 30 to 50 min | blood-brain barrier crossing (in vivo): crosses the blood-brain barrier in a dose-dependent manner | frequency of common adverse reactions: abdominal discomfort, abdominal pain, alopecia, diarrhea, nausea, pruritus, rash [10]: ≥ 1% | elimination half-life ([11]; adults): 72 to 140 h | bile UDCA levels following discontinuation of therapy, as share of average steady state concentrations ([11]; in vivo): 5 to 10% | time to steady state concentrations ([11]; on average, from starting therapy): ≤ 3 weeks | fraction of oral dose excreted via the urine ([11]; oral): 1% | fraction of exogenous UDCA absorbed ([11]; oral delivery, passive diffusion by the proximal jejunum and ileum): ~90%
